The results in this text go back to patent publication US20040121947A1, “Compounds which inhibit beta-secretase activity and methods of use thereof” (Oklahoma Medical Research Foundation, priority 2000, published 2004).

The assay concerns the target T1, memapsin 2 (Homo sapiens, UniProt P56817).
T1 construct: pET-11 vector-derived residues 1-15 of promemapsin 2-T1 (N, cleaved yes); made in house; host or cells: E. coli
Nature of the assay: Inhibition of memapsin 2 proteolytic activity, fluorogenic substrate FS-2. It counts as biochemical. The settings on record: for Vi/Vo: ratio of initial cleavage velocities of FS-2 with/without compound, enzyme and inhibitor concentrations equal (e.g., about 80 nM, 100 nM). The method, boiled down: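 Inhibitors tested at about 10 nM to 10 μM in pH 4.0 0.1 M sodium acetate containing 10% (v/v) DMSO, after 20 min preincubation at 37 °C with 80 nM self-activated memapsin 2. Substrate-independent Ki derived from apparent Ki via Km and substrate level.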

Where [1] appears, read: memapsin 2, apparent Ki in presence of substrate FS-2, read-out: Ki app.
[2] abbreviates: memapsin 2, independent of substrate, converted from Ki apparent, read-out: Ki.
[3] abbreviates: Ki, [I] < 100, memapsin 2, [I] < 100 (nM).

Where two headings read alike, the source gives them in different places.

T1 sequence (P56817 41-454 limits assumed): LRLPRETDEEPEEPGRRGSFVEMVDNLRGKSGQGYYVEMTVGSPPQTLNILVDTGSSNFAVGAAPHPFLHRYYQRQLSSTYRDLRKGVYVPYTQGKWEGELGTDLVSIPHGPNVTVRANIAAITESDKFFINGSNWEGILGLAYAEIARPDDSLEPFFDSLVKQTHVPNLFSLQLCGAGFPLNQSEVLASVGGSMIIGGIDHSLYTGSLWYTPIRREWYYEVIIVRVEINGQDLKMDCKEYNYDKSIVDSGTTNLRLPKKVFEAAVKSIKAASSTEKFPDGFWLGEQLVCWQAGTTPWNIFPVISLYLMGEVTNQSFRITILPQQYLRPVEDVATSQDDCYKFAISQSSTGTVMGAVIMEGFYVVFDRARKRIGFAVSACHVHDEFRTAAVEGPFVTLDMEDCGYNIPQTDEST

Turning to `CSCC[C@H](NC(=O)[C@@H](NC(=O)OC(C)(C)C)C(C)C)C(=O)N[C@@H](CC(C)C)[C@@H](O)C[C@@H](C)C(=O)N[C@@H](C(C)C)C1CC(Cc2ccccc2)CC(=O)O1` (some centres unmarked) [MMI-140], the Ki under setting [1] was determined as 38700 nM and the Ki under setting [2] is 24200 nM.
For `CSCC[C@H](NC(=O)[C@@H](NC(=O)OC(C)(C)C)C(C)C)C(=O)N[C@@H](CC(C)C)[C@@H](O)C[C@@H](C)C(=O)N[C@@H](C(C)C)C1CC(Cc2ccccc2)CC(=O)O1` (some centres unmarked) [MMI-141], in that order: 30000 nM and 18800 nM.
Regarding `CC(C)C[C@H](NC(=O)[C@H](CS(C)(=O)=O)NC(=O)OCc1cccnc1)[C@@H](O)C[C@@H](C)C(=O)N[C@H](C(=O)NCc1ccccc1)C(C)C` [MMI-142], the Vi/Vo amounted to 0.92.
`CC(C)C[C@H](NC(=O)[C@H](C)C[C@H](O)[C@H](CC(C)C)NC(=O)[C@H](CS(C)(=O)=O)NC(=O)OCc1cccnc1)C(=O)NCc1ccccc1` [MMI-143]: the Vi/Vo is 1.
With `CC(C)C[C@H](NC(=O)[C@H](CS(C)(=O)=O)NC(=O)OCc1ccncc1)[C@@H](O)C[C@@H](C)C(=O)N[C@H](C(=O)NCc1ccccc1)C(C)C` [MMI-144], the Vi/Vo is recorded as 1.03.
On to `C=C(C[C@H](O)[C@H](CC(C)C)NC(=O)[C@H](CCSC)NC(=O)[C@@H](NC(=O)OC(C)(C)C)C(C)C)C(=O)N[C@H](C(=O)NCc1ccccc1)C(C)C` [MMI-145], for which the Vi/Vo came to 0.84.
As for `CSCC[C@H](NC(=O)[C@@H](NC(=O)OC(C)(C)C)C(C)C)C(=O)N[C@@H](CC(C)C)[C@@H](O)C[C@@H](C)C(=O)N[C@@H](C(C)C)C1CC(Cc2ccccc2)CCO1` (some centres unmarked) [MMI-146-A], the Vi/Vo was found to be 1.07.
As to `CSCC[C@H](NC(=O)[C@@H](NC(=O)OC(C)(C)C)C(C)C)C(=O)N[C@@H](CC(C)C)[C@@H](O)C[C@@H](C)C(=O)N[C@@H](C(C)C)C1CC(Cc2ccccc2)CCO1` (some centres unmarked) [MMI-146-S], the Vi/Vo is 1.04.
Turning to `CSCC[C@H](NC(=O)[C@@H](NC(=O)OC(C)(C)C)C(C)C)C(=O)N[C@@H](CC(C)C)[C@@H](O)C[C@@H](C)C(=O)N[C@@H](C(C)C)C1CC(Cc2ccccc2)CCO1` (some centres unmarked) [MMI-147], the Vi/Vo is on record as 1.1.
Take `C=CCNC(=O)C[C@H](NC(=O)[C@@H](NC(=O)OCC=C)C(C)C)C(=O)N[C@@H](CC(C)C)[C@@H](O)C[C@@H](C)C(=O)N[C@H](C(=O)NCc1ccccc1)C(C)C` [MMI-148]: the Vi/Vo came out at 0.46. Also, the Ki under setting [1] turned out to be 25.9 nM. Besides, under setting [2], the Ki is 16.2 nM.
As for `CC(C)C[C@H](NC(=O)[C@@H]1CC(=O)NC/C=C\COC(=O)N[C@@H](C(C)C)C(=O)N1)[C@@H](O)C[C@@H](C)C(=O)N[C@H](C(=O)NCc1ccccc1)C(C)C` [MMI-149], the Vi/Vo was 0.66.
In the case of `CC(C)C[C@H](NC(=O)[C@@H]1CC(=O)NCCCCOC(=O)N[C@@H](C(C)C)C(=O)N1)[C@@H](O)C[C@@H](C)C(=O)N[C@H](C(=O)NCc1ccccc1)C(C)C` [MMI-150], the Vi/Vo was determined as 0.8.
Consider `C=CCCOC(=O)N[C@H](C(=O)N[C@@H](CC(=O)NCC=C)C(=O)N[C@@H](CC(C)C)[C@@H](O)C[C@@H](C)C(=O)N[C@H](C(=O)NCc1ccccc1)C(C)C)C(C)C` [MMI-151], for which the Vi/Vo was 0.56.
For the molecule `CC(C)C[C@H](NC(=O)[C@@H]1CC(=O)NC/C=C\CCOC(=O)N[C@@H](C(C)C)C(=O)N1)[C@@H](O)C[C@@H](C)C(=O)N[C@H](C(=O)NCc1ccccc1)C(C)C` [MMI-152], the Vi/Vo was determined as 0.47. Besides, the Ki under setting [1] came to 20.6 nM. Also, the Ki under setting [2] is 12.8 nM.
With `CC(C)C[C@H](NC(=O)[C@@H]1CC(=O)NCCCCCOC(=O)N[C@@H](C(C)C)C(=O)N1)[C@@H](O)C[C@@H](C)C(=O)N[C@H](C(=O)NCc1ccccc1)C(C)C` [MMI-153], the Vi/Vo stood at 0.68.
Consider `CSCC[C@H](NC(=O)[C@@H](NC(=O)OC(C)(C)C)C(C)C)C(=O)N[C@@H](CC(C)C)[C@@H](O)C[C@@H](C)C(=O)N[C@@H](C(C)C)C1CCCO1` (some centres unmarked) [MMI-154], for which the Vi/Vo came out at 0.1.
With `CSCC[C@H](NC(=O)[C@@H](NC(=O)OC(C)(C)C)C(C)C)C(=O)N[C@@H](CO)[C@@H](O)C[C@@H](C)C(=O)N[C@H](C(=O)NCc1ccccc1)C(C)C` [MMI-155], the Vi/Vo amounted to 0.08. For the same molecule, the Ki under setting [1] came to 2.06 nM. Further, the Ki under setting [2] amounted to 1.28 nM.
On to `CSCC[C@H](NC(=O)[C@H](CC(C)C)NC(=O)OC(C)(C)C)C(=O)N[C@@H](CC(C)C)[C@@H](O)C[C@@H](C)C(=O)N[C@@H](CC(C)C)C(=O)NC(C)C` [MMI-158], for which the Vi/Vo came to 0.08. In addition, under setting [1], the Ki was found to be 0.524 nM. Besides, the Ki under setting [2] is 0.33 nM.
Consider `CCCCNC(=O)[C@@H](NC(=O)[C@H](C)C[C@H](O)[C@H](CC(C)C)NC(=O)[C@H](CCSC)NC(=O)[C@H](CC(C)C)NC(=O)OC(C)(C)C)C(C)C` [MMI-159], for which the Vi/Vo is given as 0.07. Moreover, under setting [1], the Ki is 0.8 nM. The Ki under setting [2] amounted to 0.5 nM.
Regarding `CCCCNC(=O)[C@H](CC(C)C)NC(=O)[C@H](C)C[C@H](O)[C@H](CC(C)C)NC(=O)[C@H](CCSC)NC(=O)[C@H](CC(C)C)NC(=O)OC(C)(C)C` [MMI-160], the Vi/Vo amounted to 0.19. Moreover, the Ki under setting [1] came to 4.15 nM. Under setting [2], the Ki was found to be 2.59 nM.
In the case of `CSCC[C@H](NC(=O)[C@H](CC(C)C)NC(=O)OC(C)(C)C)C(=O)N[C@@H](CC(C)C)[C@@H](O)C[C@@H](C)C(=O)N[C@H](C(=O)NCc1ccco1)C(C)C` [MMI-161], the Vi/Vo was found to be 0.06. Besides, under setting [1], the Ki was determined as 0.68 nM. Moreover, the Ki under setting [2] was 0.43 nM.
Take `CSCC[C@H](NC(=O)[C@@H](NC(=O)OC(C)(C)C)C(C)C)C(=O)N[C@@H](CC(C)C)[C@@H](O)C[C@@H](C)NC(=O)[C@H](NC(=O)OCc1ccccc1)C(C)C` [MMI-162]: the Vi/Vo amounted to 0.98.
As to `CSCC[C@H](NC(=O)[C@@H](NC(=O)OC(C)(C)C)C(C)C)C(=O)N[C@@H](CC(C)C)[C@@H](O)C[C@@H](C)NC(=O)[C@@H](NC(=O)OCc1ccccc1)C(C)C` [MMI-163], the Vi/Vo turned out to be 0.57.
As for `CSCC[C@H](C[C@H](O)[C@H](CC(C)C)NC(=O)[C@H](CCSC)NC(=O)[C@H](CC(C)C)NC(=O)OC(C)(C)C)C(=O)N[C@H](C(=O)NCc1ccccc1)C(C)C` [MMI-164], the Vi/Vo came out at 0.29. The Ki under setting [1] amounted to 12.8 nM. Also, the Ki under setting [2] is 7.98 nM.
The corresponding values for `CSCC[C@H](NC(=O)OCn1nc(C)cc1C)C(=O)N[C@@H](CC(C)C)[C@@H](O)C[C@@H](C)C(=O)N[C@@H](CC(C)C)C(=O)NCC(C)C` [MMI-166] are 0.76, 108 nM and 67.4 nM.
Consider `CSCC[C@H](NC(=O)[C@@H](NC(=O)OC(C)(C)C)C(C)C)C(=O)N[C@@H](CC(C)C)[C@@H](O)C[C@H](C)NC(=O)[C@@H](NC(=O)OCc1ccccc1)C(C)C` [MMI-168], for which the Vi/Vo worked out at 0.75.
Turning to `CSCC[C@H](NC(=O)[C@@H](NC(=O)OC(C)(C)C)C(C)C)C(=O)N[C@@H](CC(C)C)[C@@H](O)C[C@H](C)NC(=O)[C@H](NC(=O)OCc1ccccc1)C(C)C` [MMI-169], the Vi/Vo stood at 1.1.
In the case of `CSCC[C@H](NC(=O)OCn1nc(C)cc1C)C(=O)N[C@@H](CC1CCCC1)[C@@H](O)C[C@@H](C)C(=O)N[C@@H](CC(C)C)C(=O)NCC(C)C` [MMI-170], the Vi/Vo came to 1.08.
`CCCCNC(=O)[C@@H](NC(=O)[C@H](C)C[C@H](O)[C@H](CC1CCCC1)NC(=O)[C@H](CCSC)NC(=O)OCn1nc(C)cc1C)C(C)C` [MMI-172]: the Vi/Vo worked out at 1.05. In addition, the Ki under setting [1] worked out at 447 nM. In addition, the Ki under setting [2] amounted to 279 nM.
In the case of `CSCC[C@H](NC(=O)OCCn1nc(C(C)(C)C)cc1C(C)(C)C)C(=O)N[C@@H](CC(C)C)[C@@H](O)C[C@@H](C)C(=O)N[C@@H](CC(C)C)C(=O)NCC(C)C` [MMI-177], the Vi/Vo was found to be 1.16.
For `CCCCNC(=O)[C@@H](NC(=O)[C@H](C)C[C@H](O)[C@H](CC1CCC1)NC(=O)[C@H](CCSC)NC(=O)OCn1nc(C)cc1C)C(C)C` [MMI-178], the Vi/Vo is on record as 0.69. In addition, the Ki under setting [1] was determined as 24.5 nM. Further, the Ki under setting [2] turned out to be 15.3 nM.
In the case of `CSCC[C@H](NC(=O)[C@@H](NC(=O)OC(C)(C)C)C(C)C)C(=O)N[C@@H](CC(C)C)[C@@H](O)C[C@@H](C)C(=O)N[C@@H](CC(C)C)C(=O)N1CCOCC1` [MMI-183], the Vi/Vo is given as 0.64. This molecule yielded a Ki under setting [3] of 108 nM. Further, the Ki under setting [1] amounted to 6740 nM. Further, the Ki under setting [2] is 4210 nM.
As to `CSCC[C@H](NC(=O)[C@@H](NC(=O)OC(C)(C)C)C(C)C)C(=O)N[C@@H](CC(C)C)[C@@H](O)C[C@@H](C)C(=O)N[C@@H](CC(C)C)C(=O)N1CCN(C)CC1` [MMI-184], the Vi/Vo was determined as 0.6. In addition, the Ki under setting [3] amounted to 64 nM. For the same molecule, the Ki under setting [1] was determined as 194 nM. Further, the Ki under setting [2] stood at 121 nM.
On to `CSCC[C@H](NC(=O)OCc1ccnn1C)C(=O)N[C@@H](CC(C)C)[C@@H](O)C[C@@H](C)C(=O)N[C@H](C(=O)NCC(C)C)C(C)C` [MMI-186], for which the Ki is, setting by setting: under setting [1], 217 nM; under setting [2], 136 nM.
Consider `CSCC[C@H](NC(=O)[C@@H](NC(=O)OC(C)(C)C)C(C)C)C(=O)N[C@@H](CC(C)C)[C@@H](O)C[C@]1(C)CCN([C@H](C(=O)NCC(C)C)C(C)C)C1=O` [MMI-187], for which the Ki app result (memapsin 2, apparent Ki in presence of substrate FS-2) is reported as “N.I”. For the same molecule, the Ki entry (memapsin 2, independent of substrate, converted from Ki apparent) is given as “N.I”.
Consider `CSCC[C@H](NC(=O)OCc1ncc(C)n1C)C(=O)N[C@@H](CC(C)C)[C@@H](O)C[C@@H](C)C(=O)N[C@H](C(=O)NCC(C)C)C(C)C` [MMI-188], for which the Ki runs as follows: under setting [1], 230 nM; under setting [2], 144 nM.
On to `CSCC[C@H](NC(=O)OCc1c(C)ncn1C)C(=O)N[C@@H](CC(C)C)[C@@H](O)C[C@@H](C)C(=O)N[C@H](C(=O)NCC(C)C)C(C)C` [MMI-189], for which the Ki under setting [1] came out at 358 nM and the Ki under setting [2] stood at 224 nM.
